These results are taken from PubChem BioAssay AID602321 (The Scripps Research Institute Molecular Screening Center, 2012).

SMILES strings stand for the structures. Active and inactive are the calls of the source. No rule for the calls is given here.

What all share (assay): serine hydrolase off-target inhibition in mouse brain, late-stage follow-up, selectivity assay for DAGLb inhibitor project, biochemical, gel-based competitive ABPP, mouse brain membrane, set 3 (AID 602321)
One assay has as its system LYPLA1. To be noted: gel-based competitive ABPP fluorescence, stronger effect = higher value.
The next assay deals with FAAH. The settings on record: gel-based competitive ABPP fluorescence, stronger effect = higher value.
The target of assay [1] is Acyl-protein thioesterase 2 (Mus musculus) (UniProt Q9WTL7). The settings on record: gel-based competitive ABPP fluorescence, stronger effect = higher value.
Sequence of Acyl-protein thioesterase 2 (Mus musculus) (Q9WTL7 whole entry, looked up): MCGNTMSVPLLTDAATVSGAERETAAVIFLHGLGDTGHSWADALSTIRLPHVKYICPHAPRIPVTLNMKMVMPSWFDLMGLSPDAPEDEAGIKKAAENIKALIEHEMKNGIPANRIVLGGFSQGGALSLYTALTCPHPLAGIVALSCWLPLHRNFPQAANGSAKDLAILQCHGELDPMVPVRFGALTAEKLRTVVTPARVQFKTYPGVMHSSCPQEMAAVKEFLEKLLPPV
Assay [2] deals with Monoacylglycerol lipase ABHD6 (Mus musculus) (UniProt Q8R2Y0). The settings on record: gel-based competitive ABPP fluorescence, stronger effect = higher value.
Sequence of Monoacylglycerol lipase ABHD6 (Mus musculus) (Q8R2Y0 whole entry, looked up): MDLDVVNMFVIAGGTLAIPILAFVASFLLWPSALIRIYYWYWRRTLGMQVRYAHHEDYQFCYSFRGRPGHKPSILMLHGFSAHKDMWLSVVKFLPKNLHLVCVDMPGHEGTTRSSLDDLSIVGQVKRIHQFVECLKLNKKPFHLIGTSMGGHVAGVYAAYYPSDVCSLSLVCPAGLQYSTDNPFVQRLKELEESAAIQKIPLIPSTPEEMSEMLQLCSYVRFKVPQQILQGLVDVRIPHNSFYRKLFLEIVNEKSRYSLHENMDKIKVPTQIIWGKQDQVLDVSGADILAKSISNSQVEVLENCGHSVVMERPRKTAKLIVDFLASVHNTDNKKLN
For the next assay, the system named is APEH. To be noted: gel-based competitive ABPP fluorescence, APEH, stronger effect = higher value.
Assay [3] addresses Acyl-protein thioesterase 1 (Mus musculus) + Monoacylglycerol lipase ABHD6 (Mus musculus) + Acyl-protein thioesterase 2 (Mus musculus) (UniProt P97823+Q8R2Y0+Q9WTL7). To be noted: gel-based competitive ABPP fluorescence.
For assay [4], the system named is Acyl-protein thioesterase 1 (Mus musculus) + Monoacylglycerol lipase ABHD6 (Mus musculus) + Acyl-protein thioesterase 2 (Mus musculus). To be noted: gel-based competitive ABPP fluorescence.

Sequence of Acyl-protein thioesterase 1 (Mus musculus) + Monoacylglycerol lipase ABHD6 (Mus musculus) + Acyl-protein thioesterase 2 (Mus musculus) (UniProt P97823+Q8R2Y0+Q9WTL7) (P97823 whole entry, looked up): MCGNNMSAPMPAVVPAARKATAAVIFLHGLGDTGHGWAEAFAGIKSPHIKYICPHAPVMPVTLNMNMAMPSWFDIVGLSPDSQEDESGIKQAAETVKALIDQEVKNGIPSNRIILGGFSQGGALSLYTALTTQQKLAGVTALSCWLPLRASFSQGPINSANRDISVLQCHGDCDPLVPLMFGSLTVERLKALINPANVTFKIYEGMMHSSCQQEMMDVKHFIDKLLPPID
Sequence of Acyl-protein thioesterase 1 (Mus musculus) + Monoacylglycerol lipase ABHD6 (Mus musculus) + Acyl-protein thioesterase 2 (Mus musculus) (UniProt P97823+Q8R2Y0+Q9WTL7) (Q8R2Y0 whole entry, looked up): as the sequence (Q8R2Y0 whole entry, looked up) above
Sequence of Acyl-protein thioesterase 1 (Mus musculus) + Monoacylglycerol lipase ABHD6 (Mus musculus) + Acyl-protein thioesterase 2 (Mus musculus) (UniProt P97823+Q8R2Y0+Q9WTL7) (Q9WTL7 whole entry, looked up): as the sequence (Q9WTL7 whole entry, looked up) above

For the molecule `NC(=O)c1ccc(-c2ccc(-c3cn(C(=O)N4CCCCC4c4ccccc4)nn3)cc2)cc1` (stereo unspecified), the inhibition with LYPLA1 (at 10 µM) is 90%; in the assay on LYPLA1 (inhibition, at 1 µM), 10%; in the assay with FAAH (at 10 µM), 95%; in the assay on FAAH (inhibition, at 1 µM), 10%; in assay [1] (LYPLA2, at 10 µM) it was 90%; in assay [1] (LYPLA2, inhibition, at 1 µM), 10%. Moreover, the inhibition is 98% in assay [2] (at 10 µM); 98% in assay [2] (inhibition, at 1 µM); 25% (inactive) in the assay with APEH (at 10 µM); 0% with APEH (inhibition, at 1 µM).
On to `O=C(O)c1cccc(-c2ccc(-c3cn(C(=O)N4CCCCC4CCc4ccccc4)nn3)cc2)c1` (stereo unspecified), for which the inhibition in the assay on LYPLA1 (at 10 µM) was 25% (inactive); in the assay with LYPLA1 (inhibition, at 1 µM) it was 0%; in the assay with FAAH (at 10 µM) it was 95%; in the assay on FAAH (inhibition, at 1 µM) it was 15%; in assay [1] (LYPLA2, at 10 µM) it was 25% (inactive); in assay [1] (LYPLA2, inhibition, at 1 µM), 0%. Further, the inhibition is 98% in assay [2] (at 10 µM); 98% in assay [2] (inhibition, at 1 µM); 0% (inactive) in the assay on APEH (at 10 µM); 0% with APEH (inhibition, at 1 µM).
For `O=C(N1CCCCC1c1ccccc1)n1cc(-c2ccc(-c3ccccc3CO)cc2)nn1` (stereo unspecified), the inhibition with LYPLA1 (at 10 µM) is 100%; with LYPLA1 (inhibition, at 1 µM), 20%; in the assay with FAAH (at 10 µM), 98%; with FAAH (inhibition, at 1 µM), 15%; in assay [1] (LYPLA2, at 10 µM) it was 100%; in assay [1] (LYPLA2, inhibition, at 1 µM), 20%. For the same molecule, the inhibition in assay [2] (at 10 µM) was 98%; in assay [2] (inhibition, at 1 µM), 98%; in the assay on APEH (at 10 µM) it was 45% (inactive); in the assay with APEH (inhibition, at 1 µM), 0%.
Regarding `O=C(O)c1cccc(-c2ccc(-c3cn(C(=O)N4CCCCC4c4ccccc4)nn3)cc2)c1` (stereo unspecified), the inhibition in the assay with LYPLA1 (at 10 µM) is 100%; in the assay with LYPLA1 (inhibition, at 1 µM), 85%; in the assay on FAAH (at 10 µM), 90%; in the assay on FAAH (inhibition, at 1 µM) it was 5%; in assay [1] (LYPLA2, at 10 µM), 100%; in assay [1] (LYPLA2, inhibition, at 1 µM) it was 85%. The inhibition in assay [2] (at 10 µM) was 98%; in assay [2] (inhibition, at 1 µM) it was 98%; in the assay with APEH (at 10 µM), 98%; with APEH (inhibition, at 1 µM), 80%.
As to `O=C(c1ccc(-c2ccc(-c3cn(C(=O)N4CCCCC4c4ccccc4)nn3)cc2)cc1)N1CCCCC1` (stereo unspecified), the inhibition is 90% in the assay on LYPLA1 (at 10 µM); 15% with LYPLA1 (inhibition, at 1 µM); 25% (inactive) in the assay on FAAH (at 10 µM); 10% with FAAH (inhibition, at 1 µM); 90% in assay [1] (LYPLA2, at 10 µM); 15% in assay [1] (LYPLA2, inhibition, at 1 µM). The inhibition in assay [2] (at 10 µM) was 98%; in assay [2] (inhibition, at 1 µM) it was 98%; in the assay with APEH (at 10 µM), 25% (inactive); with APEH (inhibition, at 1 µM), 0%.
As for `O=C(O)c1cccc(-c2ccc(-c3cn(C(=O)N4CCCCC4Cc4ccccc4)nn3)cc2)c1` (stereo unspecified), the inhibition in the assay on LYPLA1 (at 10 µM) was 15% (inactive); with LYPLA1 (inhibition, at 1 µM), 0%. In assay [3], the result was active. In addition, the outcome in assay [4] was inactive.
As for `O=C(N1CCCCC1c1ccccc1)n1cc(-c2ccc(-c3cccc(CO)c3)cc2)nn1` (stereo unspecified), the inhibition in the assay with LYPLA1 (at 10 µM) is 95%; with LYPLA1 (inhibition, at 1 µM), 15%. Further, the result in assay [3] was active. In addition, the result in assay [4] was inactive.
Regarding `O=C(c1cccc(-c2ccc(-c3cn(C(=O)N4CCCCC4c4ccccc4)nn3)cc2)c1)N1CCCCC1` (stereo unspecified), the inhibition with LYPLA1 (at 10 µM) was 98%; in the assay with LYPLA1 (inhibition, at 1 µM), 20%. The result in assay [4] was inactive.
For `O=C(N1CCCCC1c1ccccc1)n1cc(-c2ccc(-c3ccc(CO)cc3)cc2)nn1` (stereo unspecified), the inhibition with LYPLA1 (at 10 µM) was 90%; with LYPLA1 (inhibition, at 1 µM), 10%; in the assay on FAAH (at 10 µM), 90%; in the assay on FAAH (inhibition, at 1 µM), 0%; in assay [1] (LYPLA2, at 10 µM) it was 90%; in assay [1] (LYPLA2, inhibition, at 1 µM), 10%. Further, the inhibition in assay [2] (at 10 µM) was 98%; in assay [2] (inhibition, at 1 µM) it was 98%; in the assay with APEH (at 10 µM) it was 25% (inactive); in the assay with APEH (inhibition, at 1 µM), 0%.
`O=C(O)c1ccc(-c2ccc(-c3cn(C(=O)N4CCCCC4CCc4ccccc4)nn3)cc2)cc1` (stereo unspecified): the inhibition in the assay with LYPLA1 (at 10 µM) was 15% (inactive); in the assay on LYPLA1 (inhibition, at 1 µM) it was 0%; in the assay on FAAH (at 10 µM), 35% (inactive); in the assay with FAAH (inhibition, at 1 µM), 0%; in assay [1] (LYPLA2, at 10 µM), 15% (inactive); in assay [1] (LYPLA2, inhibition, at 1 µM), 0%. Moreover, the inhibition in assay [2] (at 10 µM) is 98%; in assay [2] (inhibition, at 1 µM), 90%; in the assay with APEH (at 10 µM), 0% (inactive); with APEH (inhibition, at 1 µM) it was 0%.
With `O=C(N1CCCCC1Cc1ccccc1)n1cc(-c2ccc(-c3cccc(CO)c3)cc2)nn1` (stereo unspecified), the inhibition with LYPLA1 (at 10 µM) was 0% (inactive); in the assay with LYPLA1 (inhibition, at 1 µM), 0%; with FAAH (at 10 µM), 25% (inactive); in the assay with FAAH (inhibition, at 1 µM), 0%; in assay [1] (LYPLA2, at 10 µM), 0% (inactive); in assay [1] (LYPLA2, inhibition, at 1 µM) it was 0%. Moreover, the inhibition is 98% in assay [2] (at 10 µM); 98% in assay [2] (inhibition, at 1 µM); 0% (inactive) in the assay with APEH (at 10 µM); 0% with APEH (inhibition, at 1 µM).
Turning to `O=C(c1ccc(-c2ccc(-c3cn(C(=O)N4CCCCC4Cc4ccccc4)nn3)cc2)cc1)N1CCCCC1` (stereo unspecified), the inhibition was 0% (inactive) in the assay on LYPLA1 (at 10 µM); 0% in the assay with LYPLA1 (inhibition, at 1 µM); 0% (inactive) in the assay with FAAH (at 10 µM); 0% in the assay on FAAH (inhibition, at 1 µM); 0% (inactive) in assay [1] (LYPLA2, at 10 µM); 0% in assay [1] (LYPLA2, inhibition, at 1 µM). The inhibition in assay [2] (at 10 µM) was 98%; in assay [2] (inhibition, at 1 µM), 98%; in the assay on APEH (at 10 µM) it was 0% (inactive); in the assay on APEH (inhibition, at 1 µM), 0%.
